# Experimental data taken from patent US10071089B2 (Euro-Celtique S.A., priority 2013, dated 2018).
# Legend:
# [1] = tested on: bacteria of different phyla in the small intestine; assay: Analysis of the contents of the small intestine (bacterial phyla)
# Protocol: (§1) The small intestine, caecum, and colon were cut longitudinally. The contents of each were individually collected into separate containers with a small spatula or similar instrument, taking care to cause as little injury to the tissue as possible. The weight of the contents collected from each portion was recorded. The weights of the small intestine, caecum, and colon following removal of the contents were also recorded. Collected luminal contents samples were then frozen in liquid nitrogen. Luminal contents samples were then placed on dry ice before transfer to a −80° C. freezer.
# The contents of the small intestine of the different groups were obtained as described above.
# [2] = tested on: male C57BL/6 RAG1-/- knockout mice; assay: Charcoal test of intestinal motility (GI transit); type: in vivo; details: charcoal meal; oral gavage three times a day for 7 days and once on 8th day; Oxy 10 mg/kg, Oxy/Nal 10/5.0 mg/kg
# Protocol: Male mice of the strain C57BL/6 RAG −/− (Taconic Model 4175-M, Taconic Laboratories) with an approximal weight at arrival of 20±7 g at an approximal age of 5 to 10 weeks were used in the present study.
# The formulations were prepared on Day 0 and used for Day 1 to Day 8 dosing. Sterile water was used as vehicle. Each of the two dose formulations was transferred into eight individual sterile vials through sterilization filters, one designated for each day of dosing. The dose formulations were stored refrigerated and protected from light.
# Animals were administered the dose by oral gavage three times a day (˜4 hours apart) for 7 days and once on the 8th day. Prior to the first dose administration of the day, the dose formulation vials designated for that day were removed from the refrigerator, briefly mixed, and allowed to come to room temperature, where the vials remained throughout the day. After the third dose on day 7, all animals fasted through euthanasia. The dose volume was based on the animal's body weight on Day 1. Dose volume was recorded. […]
# Thirty minutes after charcoal delivery, animals were euthanized by an overdose of CO2. […] Its full length and the length of charcoal meal traveled were measured in centimeters. Intestinal transit was expressed as the percentage of intestine length containing the meal, i.e. 100×(pylorus to meal front/pylorus to caecum length). […]
# [3] = tested on: bacteria in the mesenteric lymph nodes; assay: Colony forming units in mesenteric lymph nodes (bacterial translocation); type: in vivo, mice; details: blood and BHI agar; aerobic, anaerobic, CO2; G6 oxycodone, G7 oxycodone/naloxone
# Protocol: Following euthanasia, the abdomen was opened. The mesenteric root was presented and the mesenteric net unfolded. The mesenteric lymph nodes (MLNs) were removed and surrounding fat was removed. The MLNs were then weighed into sterilized tubes. Following weighing, the MLNs were frozen in liquid nitrogen. Following freezing, the MLNs were placed on dry ice prior to storage in a −70° C. freezer […].
# MLNs were obtained as indicated above and the amount of bacteria in the MLNs was analyzed by determining colony forming units (CFUs) per g MLN in different media and under different conditions as indicated in FIG. 7. Contaminated samples were not taken into account (contaminated samples in the different groups: 1 in G1, 1 in G3, 2 in G6 and 3 in G7). The statistical analysis was performed using one way ANCOVA.
# [4] = Body weights over 7 days of dosing; type: in vivo, mice; details: 10 mg/kg oxycodone or 10 mg/kg oxycodone/5 mg/kg naloxone, oral gavage
# Protocol: Animals were administered the dose by oral gavage three times a day (˜4 hours apart) for 7 days and once on the 8th day. Prior to the first dose administration of the day, the dose formulation vials designated for that day were removed from the refrigerator, briefly mixed, and allowed to come to room temperature, where the vials remained throughout the day. After the third dose on day 7, all animals fasted through euthanasia. The dose volume was based on the animal's body weight on Day 1. Dose volume was recorded.
# Individual body weights were recorded prior to administration of the first dose on Day 1. The body weight determinations prior to Day 1 dose administration was used to determine the dose administered for all subsequent doses. Subsequent body weights were recorded daily after the 2nd dose of the day on Days 2 through 7.
# [5] = tested on: bacteria of different phyla in the colon; assay: Analysis of the colon contents (bacterial phyla); details: phylum levels, FIG. 9; G1 untreated, G3 vehicle, G6, G7
# Protocol: as §1
# [6] = small intestine, n=7 for G6, n=4 for G7
structure (smiles),measurement,setting,value
COc1ccc2c3c1O[C@H]1C(=O)CC[C@@]4(O)[C@@H](C2)N(C)CC[C@]314 [oxycodone],"bacterioides in small intestine, G6-group compared to G7-group","[1]; phylum levels, FIG. 8",clear decrease
same,"proteobacteria in small intestine, G6-group compared to G7-group","[1]; phylum levels, FIG. 8",clear increase
same,mice with completely (dramatically) altered small intestine microbiome composition,[1]; [6],2/7
same,mice with pathogenic populations such as proteobacteria in small intestine,[1]; [6],5/7
same,reduction of GI transit compared to vehicle,[2],67%
same,CFUs in MLNs (bacterial translocation into mesenteric lymph nodes),[3],Increased CFUs
same,average percentage body weight loss,[4],4.17%
same,proteobacteria in colon compared to the remaining groups,[5],increase
